Data reported in ChEMBL document CHEMBL1201862, “PubChem BioAssay data set” (2004).
Active and inactive are the calls of the source.

How the values were obtained:
BJ [1] = test: cytotoxicity toward BJ-TERT fibroblasts, dose response, cell-based, RAS-independent, luminescence (AID 1933); format: functional; conditions: Homo sapiens
BJ [2] = test: cells; format: functional, cell-based; conditions: Homo sapiens
[3] = biological target: Luciferin 4-monooxygenase (Photinus pyralis, UniProt P08659); test: firefly luciferase enzyme inhibitors, dose response, biochemical, luminescence (AID 1891)
[4] = Luminescence Cell-Based Dose Confirmation HTS to Identify Inhibitors of Platelet Dense Granule Release. [Related pubchem assays: 1663 (Primary HTS), 1678 (Summary of Project)]; format: functional
BJ [5] = test: cytotoxicity toward BJ-TERT-LT-ST fibroblasts, dose response, cell-based, RAS-independent, luminescence (AID 1935); format: functional; conditions: Homo sapiens;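 further: BJ fibroblasts immortalized with TERT plus LT and ST oncogenes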
[6] = cytotoxicity toward DRD oncogenic fibroblasts, dose response, cell-based, non-viral oncogenic, luminescence (AID 1934); format: functional; conditions: Homo sapiens
[7] = biological target: Glucose-6-phosphate 1-dehydrogenase (Homo sapiens, UniProt P11413); test: human G6PD enzyme inhibitors, dose response, selectivity assay for P. falciparum G6PD inhibitor project, biochemical, fluorescence (AID 504792); format: functional
Vero = Vero cell cytotoxicity, cytotoxicity control for flavivirus capping enzyme inhibitors (AID 588742); format: functional; conditions: Chlorocebus sabaeus
Genome polyprotein = Genome polyprotein (dengue virus type 2, UniProt P29990); test: Dengue-2 NS5 methyltransferase inhibitors, primary screen, biochemical, confirmation dose response (AID 588689); format: functional
[8] = biological target: T1, Sentrin-specific protease 8 (Homo sapiens, UniProt Q96LD8); format: functional
T1 sequence (Q96LD8 whole entry): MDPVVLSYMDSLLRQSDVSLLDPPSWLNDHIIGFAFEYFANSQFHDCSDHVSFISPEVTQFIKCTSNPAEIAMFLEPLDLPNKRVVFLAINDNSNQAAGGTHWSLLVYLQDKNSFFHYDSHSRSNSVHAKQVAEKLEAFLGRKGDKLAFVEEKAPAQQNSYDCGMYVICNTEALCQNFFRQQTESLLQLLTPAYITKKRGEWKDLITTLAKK

[9] = biological target: T1, Sentrin-specific protease 8; format: functional; remark: listed apart in the source
[10] = biological target: Heat shock protein HSP 90-alpha (Homo sapiens, UniProt P07900); format: functional, organism-based
Aminopeptidase N = biological target: T2, Aminopeptidase N (Plasmodium falciparum FcB1/Columbia, UniProt O96935); test: P. falciparum M1AAP inhibitors, biochemical, fluorogenic H-Leu-NHMec substrate, 1536-well (AID 1445); parameters: species or system Plasmodium falciparum 3D7, 3D7
T2 sequence (O96935 whole entry): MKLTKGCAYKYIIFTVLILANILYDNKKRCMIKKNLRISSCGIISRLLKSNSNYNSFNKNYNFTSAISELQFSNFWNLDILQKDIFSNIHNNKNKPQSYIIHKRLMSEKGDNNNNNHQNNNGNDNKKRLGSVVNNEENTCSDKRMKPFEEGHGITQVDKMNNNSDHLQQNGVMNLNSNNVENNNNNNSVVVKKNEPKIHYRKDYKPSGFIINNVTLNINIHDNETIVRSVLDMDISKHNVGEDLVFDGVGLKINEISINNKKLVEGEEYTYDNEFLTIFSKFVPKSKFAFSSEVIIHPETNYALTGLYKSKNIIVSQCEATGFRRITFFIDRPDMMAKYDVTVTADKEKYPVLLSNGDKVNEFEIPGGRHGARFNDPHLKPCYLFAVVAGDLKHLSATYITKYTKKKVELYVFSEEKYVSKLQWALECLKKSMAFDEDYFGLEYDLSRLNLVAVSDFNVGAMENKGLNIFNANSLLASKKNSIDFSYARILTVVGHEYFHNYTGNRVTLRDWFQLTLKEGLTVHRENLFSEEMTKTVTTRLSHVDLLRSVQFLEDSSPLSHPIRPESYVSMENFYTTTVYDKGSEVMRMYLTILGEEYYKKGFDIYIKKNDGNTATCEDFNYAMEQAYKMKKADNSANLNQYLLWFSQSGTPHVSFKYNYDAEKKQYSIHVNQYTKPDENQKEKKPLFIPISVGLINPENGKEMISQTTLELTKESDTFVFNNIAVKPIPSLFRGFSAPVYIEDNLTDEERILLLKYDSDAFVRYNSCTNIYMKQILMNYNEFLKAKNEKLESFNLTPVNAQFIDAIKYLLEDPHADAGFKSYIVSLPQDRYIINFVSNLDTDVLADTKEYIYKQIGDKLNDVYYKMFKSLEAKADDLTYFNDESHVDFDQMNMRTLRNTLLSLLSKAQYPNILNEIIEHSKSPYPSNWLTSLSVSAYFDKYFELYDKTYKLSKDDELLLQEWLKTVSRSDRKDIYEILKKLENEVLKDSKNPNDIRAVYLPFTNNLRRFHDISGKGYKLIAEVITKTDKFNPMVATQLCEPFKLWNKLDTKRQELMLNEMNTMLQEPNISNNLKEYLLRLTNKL

[11] = biological target: T3, Carboxy-terminal domain RNA polymerase II polypeptide A small phosphatase 1 (Homo sapiens, UniProt Q9GZU7); test: inhibitors of CTDSP1, concentration-response testing, biochemical assay, absorbance-based, actives from ultra-high-throughput screening (AID 540297); format: functional
T3 sequence (Q9GZU7 whole entry): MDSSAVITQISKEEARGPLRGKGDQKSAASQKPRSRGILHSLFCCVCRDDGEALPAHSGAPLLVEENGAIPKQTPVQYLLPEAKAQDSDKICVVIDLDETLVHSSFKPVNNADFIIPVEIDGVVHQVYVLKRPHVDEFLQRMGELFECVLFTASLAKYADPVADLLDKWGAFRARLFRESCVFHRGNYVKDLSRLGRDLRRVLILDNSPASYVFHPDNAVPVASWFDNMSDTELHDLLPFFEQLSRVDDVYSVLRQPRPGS

[12] = biological target: Histone-lysine N-methyltransferase NSD2 (Homo sapiens, UniProt O96028); format: biochemical
Large T antigen = Large T antigen (Simian virus 40, UniProt P03070); format: functional, Betapolyomavirus macacae;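 further: Confirmatory-stage PubChem screen for compounds that inhibit SV40 T antigen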
[13] = biological target: Intestinal-type alkaline phosphatase (Mus musculus, UniProt P24822); test: PubChem AID 488785; format: functional
[14] = biological target: T4, Alkaline phosphatase, tissue-nonspecific isozyme (Homo sapiens, UniProt P05186); test: TNAP enzyme inhibition by screening hits, dose response, selectivity assay for mouse IAP inhibitor project, biochemical, human TNAP, uHTS hits (AID 488906); format: functional
T4 sequence (P05186 whole entry): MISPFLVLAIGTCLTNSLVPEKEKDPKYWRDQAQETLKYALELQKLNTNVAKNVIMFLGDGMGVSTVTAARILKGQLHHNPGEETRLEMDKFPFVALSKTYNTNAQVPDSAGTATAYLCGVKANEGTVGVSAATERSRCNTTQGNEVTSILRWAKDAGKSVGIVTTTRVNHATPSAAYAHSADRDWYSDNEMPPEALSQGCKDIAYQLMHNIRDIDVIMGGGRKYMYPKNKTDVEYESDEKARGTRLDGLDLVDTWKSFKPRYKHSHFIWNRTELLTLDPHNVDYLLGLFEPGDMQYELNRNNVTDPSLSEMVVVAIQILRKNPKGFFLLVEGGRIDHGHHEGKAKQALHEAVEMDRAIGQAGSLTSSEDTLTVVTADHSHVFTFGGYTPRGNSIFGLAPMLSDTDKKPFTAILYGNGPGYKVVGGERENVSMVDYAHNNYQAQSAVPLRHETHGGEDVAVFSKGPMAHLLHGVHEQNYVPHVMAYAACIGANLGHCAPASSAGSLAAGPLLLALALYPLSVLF

[15] = biological target: Intestinal-type alkaline phosphatase (Homo sapiens, UniProt P09923); test: inhibition of human intestinal alkaline phosphatase – biochemical, dose response (AID 488876); format: functional
[16] = Shn3 3'UTR reporter inhibitors, dose response, cell-based, Clone20 osteoblasts, firefly luciferase, cherry-picked (AID 624132); format: functional;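 further: firefly luciferase luminescence from reporter carrying the Shn3 3'UTR in osteoblasts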
[17] = control 3'UTR Renilla luciferase suppression, dose response, counter-screen for Shn3 inhibitor project, cell-based, Clone20-Shn3RL, cherry-picked (AID 624133); format: functional
Caspase-6 = biological target: T5, Caspase-6 (Homo sapiens, UniProt P55212); test: human caspase-6 inhibitors, dose response, biochemical, VEID-R110 fluorescence, cherry-pick (AID 720632)
T5 sequence (P55212 whole entry): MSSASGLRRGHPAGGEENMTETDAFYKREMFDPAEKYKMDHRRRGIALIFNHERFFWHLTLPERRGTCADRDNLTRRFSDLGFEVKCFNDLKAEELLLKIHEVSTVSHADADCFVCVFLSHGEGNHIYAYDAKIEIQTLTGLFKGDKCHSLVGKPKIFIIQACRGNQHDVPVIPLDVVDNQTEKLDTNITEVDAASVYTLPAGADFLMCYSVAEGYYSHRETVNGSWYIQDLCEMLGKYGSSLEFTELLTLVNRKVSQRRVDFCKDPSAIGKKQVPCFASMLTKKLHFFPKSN

Sequence of Genome polyprotein (P29990 2492-3391 limits assumed): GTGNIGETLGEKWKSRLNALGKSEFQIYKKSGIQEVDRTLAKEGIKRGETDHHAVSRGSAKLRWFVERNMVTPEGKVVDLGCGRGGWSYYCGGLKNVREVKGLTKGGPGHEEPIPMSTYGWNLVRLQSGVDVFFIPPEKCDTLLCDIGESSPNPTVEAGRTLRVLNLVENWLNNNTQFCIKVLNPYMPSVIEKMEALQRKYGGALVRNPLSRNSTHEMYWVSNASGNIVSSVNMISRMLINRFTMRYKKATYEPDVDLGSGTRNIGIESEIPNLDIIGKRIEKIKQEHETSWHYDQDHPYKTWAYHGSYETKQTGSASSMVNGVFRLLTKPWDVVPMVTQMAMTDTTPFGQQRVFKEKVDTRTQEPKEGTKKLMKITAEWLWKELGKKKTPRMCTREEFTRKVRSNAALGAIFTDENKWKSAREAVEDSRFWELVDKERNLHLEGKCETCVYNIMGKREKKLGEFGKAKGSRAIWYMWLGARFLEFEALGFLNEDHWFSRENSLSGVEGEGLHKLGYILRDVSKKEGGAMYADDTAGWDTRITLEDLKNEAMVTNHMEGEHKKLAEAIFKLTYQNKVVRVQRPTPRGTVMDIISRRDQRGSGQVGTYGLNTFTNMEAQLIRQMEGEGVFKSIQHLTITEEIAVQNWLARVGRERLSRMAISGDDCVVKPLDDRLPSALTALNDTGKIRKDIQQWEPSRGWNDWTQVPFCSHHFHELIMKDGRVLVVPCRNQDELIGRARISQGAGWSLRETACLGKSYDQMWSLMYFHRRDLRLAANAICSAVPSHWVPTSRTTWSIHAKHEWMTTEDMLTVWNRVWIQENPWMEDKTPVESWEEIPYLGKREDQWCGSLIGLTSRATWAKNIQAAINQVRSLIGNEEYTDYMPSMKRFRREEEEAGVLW
Sequence of Histone-lysine N-methyltransferase NSD2 (O96028 whole entry): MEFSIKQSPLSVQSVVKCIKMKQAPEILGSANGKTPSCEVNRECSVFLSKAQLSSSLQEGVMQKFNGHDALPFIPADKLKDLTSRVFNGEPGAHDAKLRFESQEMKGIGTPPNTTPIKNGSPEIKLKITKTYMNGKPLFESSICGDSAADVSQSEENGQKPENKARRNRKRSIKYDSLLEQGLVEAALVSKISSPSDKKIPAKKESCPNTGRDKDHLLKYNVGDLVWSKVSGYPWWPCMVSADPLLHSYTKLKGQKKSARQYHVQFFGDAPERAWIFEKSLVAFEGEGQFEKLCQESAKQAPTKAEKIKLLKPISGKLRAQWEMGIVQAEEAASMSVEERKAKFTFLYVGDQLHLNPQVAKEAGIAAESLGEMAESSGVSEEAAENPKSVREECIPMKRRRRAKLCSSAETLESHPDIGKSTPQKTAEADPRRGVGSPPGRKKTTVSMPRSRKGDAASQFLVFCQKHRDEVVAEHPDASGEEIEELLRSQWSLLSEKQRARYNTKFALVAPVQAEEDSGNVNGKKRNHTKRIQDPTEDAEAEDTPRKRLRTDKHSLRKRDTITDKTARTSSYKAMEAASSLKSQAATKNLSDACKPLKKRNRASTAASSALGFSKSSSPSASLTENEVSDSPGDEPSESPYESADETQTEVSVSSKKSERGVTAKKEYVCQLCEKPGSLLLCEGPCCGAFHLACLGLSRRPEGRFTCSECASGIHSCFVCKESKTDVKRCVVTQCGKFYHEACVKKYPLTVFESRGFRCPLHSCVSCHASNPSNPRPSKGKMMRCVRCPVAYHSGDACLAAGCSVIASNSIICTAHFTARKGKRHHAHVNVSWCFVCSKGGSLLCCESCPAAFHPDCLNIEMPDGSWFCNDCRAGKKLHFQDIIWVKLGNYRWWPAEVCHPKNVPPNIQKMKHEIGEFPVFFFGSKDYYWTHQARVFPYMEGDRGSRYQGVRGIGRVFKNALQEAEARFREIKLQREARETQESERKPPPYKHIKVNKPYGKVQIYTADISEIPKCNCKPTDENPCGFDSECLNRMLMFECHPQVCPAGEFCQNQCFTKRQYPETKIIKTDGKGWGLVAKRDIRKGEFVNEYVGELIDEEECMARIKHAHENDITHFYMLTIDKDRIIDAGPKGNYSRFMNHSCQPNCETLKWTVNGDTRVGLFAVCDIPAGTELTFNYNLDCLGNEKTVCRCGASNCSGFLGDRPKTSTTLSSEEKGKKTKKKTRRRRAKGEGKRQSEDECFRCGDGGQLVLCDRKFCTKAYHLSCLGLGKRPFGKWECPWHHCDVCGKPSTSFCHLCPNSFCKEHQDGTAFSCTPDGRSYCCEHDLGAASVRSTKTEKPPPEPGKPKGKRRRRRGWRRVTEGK
Sequence of Intestinal-type alkaline phosphatase (Homo sapiens, UniProt P09923) (P09923 whole entry): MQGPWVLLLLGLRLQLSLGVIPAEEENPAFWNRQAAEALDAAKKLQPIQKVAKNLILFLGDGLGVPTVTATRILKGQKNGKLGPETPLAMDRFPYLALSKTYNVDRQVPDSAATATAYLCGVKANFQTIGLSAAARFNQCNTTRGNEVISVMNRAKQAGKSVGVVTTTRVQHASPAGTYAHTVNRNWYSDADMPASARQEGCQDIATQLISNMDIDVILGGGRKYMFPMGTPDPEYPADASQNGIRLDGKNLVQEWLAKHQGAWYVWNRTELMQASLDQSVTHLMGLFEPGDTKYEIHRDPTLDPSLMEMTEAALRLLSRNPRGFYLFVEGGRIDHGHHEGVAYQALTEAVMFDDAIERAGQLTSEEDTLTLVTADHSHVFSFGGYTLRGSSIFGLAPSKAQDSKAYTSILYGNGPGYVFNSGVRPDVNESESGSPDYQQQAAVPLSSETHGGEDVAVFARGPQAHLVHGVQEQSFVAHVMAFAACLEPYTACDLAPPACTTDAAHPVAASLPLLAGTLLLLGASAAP
Sequence of Glucose-6-phosphate 1-dehydrogenase (P11413 whole entry): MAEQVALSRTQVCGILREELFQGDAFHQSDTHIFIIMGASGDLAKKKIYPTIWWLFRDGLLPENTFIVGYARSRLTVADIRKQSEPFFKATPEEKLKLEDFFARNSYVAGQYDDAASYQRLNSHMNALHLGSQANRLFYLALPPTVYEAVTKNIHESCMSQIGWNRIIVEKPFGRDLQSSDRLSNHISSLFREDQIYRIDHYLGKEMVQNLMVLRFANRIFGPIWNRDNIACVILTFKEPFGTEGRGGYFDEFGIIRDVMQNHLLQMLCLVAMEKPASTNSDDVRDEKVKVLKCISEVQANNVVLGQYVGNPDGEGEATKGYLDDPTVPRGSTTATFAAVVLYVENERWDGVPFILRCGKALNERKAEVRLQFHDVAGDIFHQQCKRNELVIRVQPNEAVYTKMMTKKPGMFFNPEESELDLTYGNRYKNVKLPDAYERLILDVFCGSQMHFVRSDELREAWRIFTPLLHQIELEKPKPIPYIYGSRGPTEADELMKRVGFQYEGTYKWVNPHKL
Sequence of Large T antigen (P03070 whole entry): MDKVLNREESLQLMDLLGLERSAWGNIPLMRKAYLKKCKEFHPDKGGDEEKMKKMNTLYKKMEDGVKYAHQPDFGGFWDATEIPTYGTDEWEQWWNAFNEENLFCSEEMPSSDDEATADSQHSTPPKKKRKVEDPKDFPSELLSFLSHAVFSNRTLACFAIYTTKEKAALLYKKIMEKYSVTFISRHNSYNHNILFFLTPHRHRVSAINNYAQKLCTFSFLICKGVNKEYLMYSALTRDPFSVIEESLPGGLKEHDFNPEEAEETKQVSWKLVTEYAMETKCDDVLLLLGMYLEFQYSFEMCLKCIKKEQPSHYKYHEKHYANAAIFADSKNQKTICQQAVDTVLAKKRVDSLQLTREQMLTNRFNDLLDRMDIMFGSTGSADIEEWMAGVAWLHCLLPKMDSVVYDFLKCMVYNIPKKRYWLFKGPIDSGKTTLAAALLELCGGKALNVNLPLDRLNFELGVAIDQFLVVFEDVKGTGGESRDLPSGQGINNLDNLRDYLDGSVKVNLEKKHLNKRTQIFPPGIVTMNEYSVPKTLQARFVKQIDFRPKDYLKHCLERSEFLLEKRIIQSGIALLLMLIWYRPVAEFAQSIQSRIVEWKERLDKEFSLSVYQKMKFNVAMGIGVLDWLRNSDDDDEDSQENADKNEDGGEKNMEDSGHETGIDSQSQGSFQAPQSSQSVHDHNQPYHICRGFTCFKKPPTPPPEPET
Sequence of Intestinal-type alkaline phosphatase (Mus musculus, UniProt P24822) (P24822 whole entry): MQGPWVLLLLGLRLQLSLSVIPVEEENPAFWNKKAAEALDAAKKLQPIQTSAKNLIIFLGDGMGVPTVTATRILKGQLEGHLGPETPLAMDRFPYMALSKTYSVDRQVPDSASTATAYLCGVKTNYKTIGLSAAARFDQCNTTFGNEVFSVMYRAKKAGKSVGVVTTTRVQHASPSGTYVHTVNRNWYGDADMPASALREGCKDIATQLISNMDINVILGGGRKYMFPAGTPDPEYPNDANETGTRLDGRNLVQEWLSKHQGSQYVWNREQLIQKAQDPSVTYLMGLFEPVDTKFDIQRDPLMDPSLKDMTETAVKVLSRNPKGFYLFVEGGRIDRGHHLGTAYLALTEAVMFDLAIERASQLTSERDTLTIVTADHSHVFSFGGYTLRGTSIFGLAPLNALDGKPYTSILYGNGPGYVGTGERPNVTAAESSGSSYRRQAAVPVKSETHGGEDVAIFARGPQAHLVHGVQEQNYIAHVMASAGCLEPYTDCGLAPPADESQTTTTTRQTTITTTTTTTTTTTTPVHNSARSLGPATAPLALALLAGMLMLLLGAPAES

COc1cccc2nc3cc(C)c(C)cc3nc12
inactive: IC50 [7] 37.1 µM
inconclusive: EC50 (BJ [5]) 12.2 µM
active: EC50 (BJ [1]) 3.31 µM | EC50 (BJ [2]) 3.05 µM | EC50 [3] 0.923 µM | EC50 [4] 7.02 µM | EC50 [6] 3.01 µM | CC50 (Vero) 11.7 µM | IC50 (Genome polyprotein) 62.2 µM | IC50 [8] 8.48 µM | IC50 [9] 8.2 µM

CCOc1ccc(Br)cc1C1=NN(C(C)=O)C(c2ccc([N+](=O)[O-])s2)O1 (configuration not stated)
active: AC50 [10] 7.83 µM | IC50 [8] 11 µM | IC50 [9] 9.04 µM

Cc1ccc(S(=O)(=O)NC2=NC(=O)/C(=C/c3ccc(Br)o3)S2)cc1
active: IC50 (Aminopeptidase N) 42.1 µM | IC50 [11] 7.47 µM | AC50 [12] 14.1 µM

Oc1ccc(-c2csc(Nc3cccc4ccccc34)n2)cc1O
active: IC50 (Large T antigen) 66.2 µM | IC50 [13] 1.63 µM | IC50 [14] 78 µM | IC50 [15] 3.36 µM | CC50 (Vero) > 40 µM | IC50 (Genome polyprotein) > 100 µM | AC50 [16] 1.58 µM | AC50 [17] 7.93 µM | AC50 (Caspase-6) 14.1 µM | AC50 [12] 10.5 µM
